This passage reports IC50 results from ChEMBL document CHEMBL1136202, “Imidazo[1,2-a]pyridines: a potent and selective class of cyclin-dependent kinase inhibitors identified through structure-based hybridisation” (Bioorg Med Chem Lett, 2003).

In test [1] the target is Cyclin-dependent kinase 2 (Homo sapiens, UniProt P24941). In words: Inhibition of Cyclin-dependent kinase 2.
Test [2] concerns the target Cyclin-dependent kinase 4 (Homo sapiens, UniProt P11802). In words: Inhibition of Cyclin-dependent kinase 4.

Chain of Cyclin-dependent kinase 4 (P11802 whole entry): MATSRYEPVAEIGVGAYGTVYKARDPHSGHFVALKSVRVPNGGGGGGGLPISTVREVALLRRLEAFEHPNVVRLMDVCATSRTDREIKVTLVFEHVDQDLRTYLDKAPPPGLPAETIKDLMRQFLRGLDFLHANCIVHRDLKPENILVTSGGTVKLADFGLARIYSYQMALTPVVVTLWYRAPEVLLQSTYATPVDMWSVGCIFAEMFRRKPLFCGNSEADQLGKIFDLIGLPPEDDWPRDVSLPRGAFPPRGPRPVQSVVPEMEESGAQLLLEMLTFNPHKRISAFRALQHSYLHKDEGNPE

Usually IC50 stands for the concentration that gives 50% inhibition. `Cc1nc2ccccn2c1-c1ccnc(NC(=O)C(F)(F)F)n1`: the IC50 in test [1] amounted to 95 µM; in test [2], 40 µM.

Take `Cc1ccc(F)c(Nc2ccnc(Nc3ccc(S(N)(=O)=O)cc3)n2)c1`: the IC50 in test [1] was 0.006 µM; in test [2], 2.7 µM.

`Cc1nc2ccccn2c1-c1ccnc(N)n1`: the IC50 in test [1] came out at 4 µM; in test [2], 8 µM.

Take `CC(=O)Nc1nccc(-c2c(C)nc3ccccn23)n1`: the figures for the IC50 in test [1] and in test [2] were 2.9 µM and 8.9 µM, respectively.

`CN(C)CC(O)COc1ccc(Nc2nccc(Nc3ccccc3)n2)cc1` (stereo unspecified): the IC50 in test [1] is 32 µM.

For `Cc1nc2ccccn2c1-c1ccnc(NC(=O)Nc2ccccc2)n1`, the IC50 in test [1] and in test [2] was greater than 10 µM each time.

As to `Cc1nc2ccccn2c1-c1ccnc(Nc2ccc(S(N)(=O)=O)cc2)n1`, the IC50 in test [1] was less than 0.003 µM; in test [2], 2.5 µM.

Regarding `Cc1nc2ccccn2c1-c1ccnc(Nc2ccccc2)n1`, the results for the IC50 in test [1] and in test [2] were 0.036 µM and 3.6 µM, respectively.

Molecule `Cc1nc2ccccn2c1-c1ccnc(Nc2ccc(OCC(O)CN(C)C)cc2)n1` (stereo unspecified) returned an IC50 in test [2] of 0.15 µM.
